For one assay, the system named is hPGC-1 promoter. Briefly: hPGC-1 promoter luciferase reporter assay in transiently transfected L6 cells. It counts as cell-based. The conditions noted are these: for activity at 1 µM: 1 μM compound; for activity at 1 µM / activity at 5 µM / activity at 25 µM: reporter vector phPGC1(2.2)Luc, luciferase activity relative to no compound; for activity at 5 µM: 5 μM compound; for activity at 25 µM: 25 μM compound; for promoter activating ability relative to the case of adding no compound: at compound final concentration of 1 μM, 5 μM or 25 μM, phPGC1(2.2)Luc. The protocol:
Various reporter vectors shown in FIG. 1 were transiently transfected into L6 cells. Specifically, L6 cells were cultured in a tissue culture dish having a diameter of 10 cm and at the time when it was reached 50% confluent, 5 μg of the above plasmid and 1.5 μg of a plasmid pCH110 containing β-galactosidase gene controlled by β-actin promoter were used in combination in order to standardize gene transfection efficiency and the plasmids were introduced into the cells using FuGENE™6 (BOEHRINGER MANNHEIM, USA, 1814 443). After 24 hours, the cells were transferred into a 96-well culture dish, followed by additional 6 hours of culture. From the reports until now, since it is known that 9-cis-RETINOIC ACID (one of vitamin A acids) increases the expression of PGC-1 gene derived from mouse in cells (Cell, 92, 829-839 (1998)), 9-cis-RETINOIC ACID (SIGMA, USA, R4643) having a final concentration of 1 μM was added and the mixture was treated for 24 hours. Then, the cells were dissolved with a cell dissolving liquid LCβ (Toyo Ink, Japan) and luciferase activity thereof was measured using a PicaGene Luminescent Kit (Toyo Ink, Japan, 309-04321). By the way, all the activity measurements were carried out three times per measurement and each experiment was repeated at least twice to confirm the reproducibility.
Each reporter activity was standardized by β-galactosidase activity and expressed by a relative value wherein the value in the case of adding no compound was regarded as 1. In L6 cells, hPGC-1 reporter was increased a maximum of about 2.5 times by the treatment with 9-cis-RETINOIC ACID and thus a result consistent with the report that the expression of PGC-1 gene derived from mouse was enhanced by 9-cis-RETINOIC ACID was obtained.
Using the reporter vector phPGC1(2.2)Luc in the method described in Example 5, screening of a compound stimulating an hPGC-1 promoter activity was carried out wherein commercially available compounds were used as test compounds. […] By the way, Compound B, Compound E and Compound G are commercially available as the code number 4K@UH1-646 of INTERBIOSCREEN, as the code number MS0447 of MARLIN and as the code number A1773/0075171 of ZELINSKY, respectively and are 5-(4-fluorobenzylidene)-2,4-thiazolidinedione, 5-(4-bromobenzylidene)-2,4-thiazolidinedione, 2-(3-aminophenyl)-5-benzoyl-(1H)-benzimidazole, respectively.
For orientation: In a reporter assay the amount or activity of a reporter protein is the signal.

In the next assay the test system is L6 cells. Kind of assay: Measurement of mitochondrial enzymatic activity (WST-1 mitochondrial dehydrogenase colorimetric assay) in L6 cells. The format is cell-based, rat. Particulars: for activity at 1 µM / activity at 5 µM / activity at 25 µM: Rattus norvegicus, 24 hours, relative to no compound. The protocol: Rat myoblast L6 (ATCC, CRL-1458) was maintained Dulbecco's modified Eagle medium containing 10% fetal bovine serum (GIBCO BRL, USA, 11965-092) and cultured in a wet air containing 5% CO2 at 37° C.
For the investigation of mitochondrial enzymatic activity of cells, a reagent WST-1 (DOJINDO, 342-06451) was used, which enabled the measurement of mitochondrial dehydrogenase activity of living cells by colorimetric assay method. Specifically, L6 cells were cultured in a tissue culture dish having a diameter of 10 cm and after reached confluent, the cells were transferred into a 96-well tissue culture dish. At that time, the medium was changed to Dulbecco's modified Eagle medium containing no Phenol Red (GIBCO BRL, USA, 21063-029). […] After the addition of each compound and 24 hours of treatment, the medium containing the compound was sucked and discarded and thereto were added 100 μl of Dulbecco's modified Eagle medium containing no Phenol Red and no fetal bovine serum and 10 μL of PBS containing 5 mM WST-1 and 0.2 mM 1-Methoxy PMS (DOJINDO, 345-04001). After 4 hours of reaction at 37° C., absorbance was measured at a measuring wavelength of 450 nm. In this regard, all the activity measurements were carried out three times per measurement and each experiment was repeated at least twice to confirm the reproducibility.
Tables 2(a) and 2(b) show the results of 9-cis-RETINOIC ACID and the compounds obtained in Example 6, respectively. Each value was expressed by a relative value wherein the absorbance of the sample containing no cell was subtracted as a background from each absorbance and the value in the case of adding no compound was regarded as 1. […] As mentioned above, it was shown that substances stimulating an hPGC-1 promoter activity have an action to activate mitochondrial enzymes.
A general note: Formazan colour is commonly taken as a measure of viable cells.

Molecules are shown by their SMILES.

For `O=C1NC(=O)C(=Cc2ccc(Br)cc2)S1` [Compound E, 5-(4-bromobenzylidene)-2,4-thiazolidinedione], in the assay on hPGC-1 promoter, the activity at 1 µM was found to be 146%, the activity at 5 µM amounted to 208%, the activity at 25 µM is 157% and the “promoter activating ability relative to the case of adding no compound” value is given as “more than twice”. Besides, in the assay on L6 cells, the activity at 1 µM is 102%, the activity at 5 µM was determined as 141% and the activity at 25 µM was found to be 285%.
As for `Nc1cccc(-c2nc3cc(C(=O)c4ccccc4)ccc3[nH]2)c1` [Compound G, 2-(3-aminophenyl)-5-benzoyl-(1H)-benzimidazole], in the assay on hPGC-1 promoter, the activity at 1 µM came out at 207%, the activity at 5 µM came out at 175%, the activity at 25 µM worked out at 91% and the “promoter activating ability relative to the case of adding no compound” value is “more than twice”. Further, in the assay with L6 cells, the activity at 1 µM turned out to be 80%, the activity at 5 µM stood at 102% and the activity at 25 µM came out at 176%.
With `CC1=C(/C=C/C(C)=C\C=C\C(C)=C\C(=O)O)C(C)(C)CCC1` [9-cis-RETINOIC ACID, reference compound], the “increase of hPGC-1 reporter activity (maximum)” value in the assay on hPGC-1 promoter (1 μM, 24 hours, normalized with β-galactosidase, no compound = 1, maximum over the reporter vectors) was “about 2.5 times”. Also, the reporter activity entry in the assay on hPGC-1 promoter (1 μM, 24 hours, reporter vector hPGC1(0.1)Luc) was “completely lost”. In the assay with hPGC-1 promoter (1 μM, 24 hours, reporter vectors hPGC1(0.2)Luc to hPGC1(5.2)Luc), the “activity enhancement (9-cis-RETINOIC ACID responsibility) of reporter” value is recorded as “strongly observed”. For the same compound, the “mitochondrial enzymatic activity (statement in words)” value with L6 cells (24 hours treatment, Dunnett test) is reported as “increased mitochondrial enzymatic activity with a significant difference”.
`O=C1NC(=O)C(=Cc2ccc(F)cc2)S1` [Compound B, 5-(4-fluorobenzylidene)-2,4-thiazolidinedione]: in the assay on hPGC-1 promoter, the activity at 1 µM was 160%, the activity at 5 µM was 203%, the activity at 25 µM was 202% and the “promoter activating ability relative to the case of adding no compound” value is recorded as “more than twice”. Further, in the assay on L6 cells, the activity at 1 µM was 94%, the activity at 5 µM came to 121% and the activity at 25 µM was 175%.

Source of the values: US20040115626A1, “Human pgc-1 promoter” (priority 2000, published 2004).
